Two molecules from US12054495B2, “Substituted macrocyclic compounds and related methods of treatment” (Alkermes, Inc., priority 2019, dated 2024) can be followed below.

In series [1] the target is T1, human orexin-2 receptor (OX2R) (Homo sapiens, UniProt O43614).
T1 construct: expressed in transfected cells
T1 sequence (O43614 1-444): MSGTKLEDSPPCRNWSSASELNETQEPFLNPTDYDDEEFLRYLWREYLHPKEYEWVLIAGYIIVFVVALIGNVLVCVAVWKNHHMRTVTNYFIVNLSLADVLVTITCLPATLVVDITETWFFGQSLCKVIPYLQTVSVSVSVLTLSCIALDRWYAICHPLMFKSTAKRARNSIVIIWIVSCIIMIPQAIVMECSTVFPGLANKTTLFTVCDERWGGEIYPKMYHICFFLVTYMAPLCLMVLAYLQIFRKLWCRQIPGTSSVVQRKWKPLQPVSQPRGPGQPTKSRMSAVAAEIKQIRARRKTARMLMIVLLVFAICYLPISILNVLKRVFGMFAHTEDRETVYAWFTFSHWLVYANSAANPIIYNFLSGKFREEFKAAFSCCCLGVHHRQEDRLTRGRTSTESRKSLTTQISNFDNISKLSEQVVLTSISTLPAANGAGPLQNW
The series can be described thus: Human OX2R IP1 assay. It is filed as cell-based. The following applies: T-Rex CHO cells stably overexpressing human OX2R, IP1 accumulation, 1 hr at 37 degrees C; mean EC50; ∧ = racemic mixture. The gist of the method: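 Doxycycline-induced T-Rex CHO cells stably expressing human OX2R treated with compound 1 hr at 37 °C in LiCl-containing buffer, pH 7.4. IP1 accumulation quantified by HTRF competitive immunoassay; EC50 reported as mean ± S.E.M.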

A short description of series [2]: Hepatocytes stability assay (human hepatocytes). It is filed as in vitro ADME. The following applies: both sexes, cryopreserved hepatocytes, 1 μM test compound, 1×10^6 cell/mL, 37 degrees C, read-out: CLint (μL/min/million cells). Put shortly: (§1)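 Cryopreserved pooled (50 donors, mixed gender) human hepatocytes at 1×10^6 cells/mL in Krebs-Henseleit buffer with 1 μM compound (0.1% DMSO), 37 degrees C, sampled 0–240 min. Parent depletion by LC-MS/MS; first-order fit gave T1/2 and CLint, scaled to hepatic clearance via well-stirred model (fu assumed 1); extraction ratio = CL,hep/liver blood flow.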

The subject of series [3] is human hepatocytes. In words: Hepatocytes stability assay (human hepatocytes). Format: in vitro ADME. The following applies: scaled hepatic clearance divided by liver blood flow, fu assumed unity. Put shortly: as §1
In series [4] the test system is Sprague-Dawley rats. The series can be described thus: Assessment of wake promotion in Sprague-Dawley rats (EEG/EMG). It is filed as in vivo. The following applies: Rattus norvegicus, 3 mpk, male Sprague-Dawley rats, dosed at ZT5, 6-hour post-dose period, read-out: Mean cortical activation time (% vehicle treatment). As to the method:
Wake promotion was assessed using electroencephalography (EEG) and electromyography (EMG) in adult male Sprague-Dawley rats (350-600 g). All rats (Charles River Laboratories, Raleigh, NC, USA) were intraperitoneally implanted with telemetry devices (F50-EEE, Data Sciences International Inc., M/N, USA) under isoflurane anesthesia. For EEG, stainless steel screws were implanted over frontal cortex and parietal cortex, and reference screws were placed over cerebellum. Additionally, an electrode was placed in neck muscle for EMG. Rats were given carprofen post-surgery and underwent a 7 to 10-day recovery period. Rats habituated to the experimental room for 7 days and were maintained on a 12-hour light-dark cycle.
EEG and EMG data were recorded using the DSI telemetry system and Ponemah software (Data Sciences International Inc., MN, USA). Sleep-wake stages were scored both manually and with Somnivore, a supervised machine learning software platform, in 10 second epocs. Records were visually inspected as needed post-processing.
All test compounds were dissolved in 5% DMSO and suspended in 95% saline with 0.5% methylcellulose and 0.5% tween. […] Unless otherwise indicated, all compounds were dosed orally. Recordings for each rat were initiated immediately after dosing and lasted for 6 hours post-dose.
Two key endpoints include wakefulness time and cortical activation time. Wakefulness time is derived from the sleep-wake stage analysis. Cortical activation time is based on the duration in which frontal gamma oscillatory activity (30-100 Hz), a key feature of wakefulness, was elevated relative to a pre-treatment baseline. Mean cortical activation time was computed relative to vehicle treatment for the 6-hour post-dose period.

pEC50: −log10 of the molar value. Where two headings read alike, the source gives them in different places.

With `CS(=O)(=O)N[C@@H]1CCCN2C(=O)COc3cccc(F)c3[C@H]3CC[C@H](CC3)OC[C@H]12` (racemic) [Compound 49], the pEC50 (in general, −log10 of the EC50, conventionally taken in molar units) in series [1] was over 7.00. In addition, in series [2], the hepatocyte CLint at 1 μM is 12 µL/min/1e6 cells. Moreover, the “Extraction Ratio (ER)” value in series [3] amounted to 0.64. In series [4] (PO), the response vs control in vivo at 3 mg/kg was determined as 340%.

With `COC(=O)N1CCC[C@H](NS(C)(=O)=O)[C@@H]1CO[C@H]1CC[C@@H](c2ccccc2)CC1` [methyl (2R,3S)-3-((methylsulfonyl)amino)-2-(((cis-4-phenylcyclohexyl)oxy)methyl)-piperidine-1-carboxylate, reference compound], the pEC50 in series [1] is over 7.00. The hepatocyte CLint at 1 μM in series [2] was 51 µL/min/1e6 cells. Moreover, in series [3], the “Extraction Ratio (ER)” value was 0.88. Besides, the response vs control in vivo at 3 mg/kg in series [4] (SC) worked out at 119%.
